Laboratory results published in ChEMBL document CHEMBL4265877, “Optimization of permeability in a series of pyrrolotriazine inhibitors of IRAK4” (Bioorg Med Chem, 2018).

Tests used:
[1] = Lipophilicity, log D of the compound at pH 7.4 by shake flask method; type: physicochemical; conditions: buffer
[2] = Intrinsic clearance in human microsomes assessed per mg protein; type: ADME, Microsome; conditions: read-out: CLH
[3] = Apparent permeability from apical to basolateral side in human Caco2 cells; type: ADME, cell-based; conditions: Caco-2

Row | logD [1] | microsomal CLint [2] [µL/min/mg] | Papp A→B [3] [×10⁻⁶ cm/s] | SMILES
1 | -0.7 | – | – | CN(C)[C@H]1CC[C@H](Nc2ncnc3ccoc23)CC1
2 | -0.8 | – | – | Cn1ccc2ncnc(N[C@H]3CC[C@H](N(C)C)CC3)c21
3 | -0.3 | < 3 | – | CN(C)[C@H]1CC[C@H](Nc2ncnc3cc[nH]c23)CC1
4 | 0.2 | – | 36 | Cc1ccn2ncnc(N[C@H]3CC[C@H](N(C)C)CC3)c12
5 | -0.2 | – | – | CN(C)[C@H]1CC[C@H](Nc2ncnc3ccsc23)CC1
6 | 0 | < 3 | – | CN(C)[C@H]1CC[C@H](Nc2ncnn3cccc23)CC1
7 | 0.3 | 39 | – | CN(C)[C@H]1CC[C@H](Nc2ncnc3cscc23)CC1
8 | -0.6 | – | – | CN(C)[C@H]1CC[C@H](Nc2ncnc3ccn(C4CCOCC4)c23)CC1
